From patent EP4471049A1 (Zealand Pharma A/S, priority 2023, dated 2024)
*1 amine or outer side, *2 acyl side, *3 side chain or, on linkers, in order; H or OH if unused. Where a SMILES comes first, the peptide text is derived from it. Bridges are numbered along the chain shown (N, C = ends). [ ]: non-standard residue; d: D form. The star is where a group is joined. 2Nal = N[C@@H](Cc1ccc2ccccc2c1)C(=O)O; AEF = NCCOc1ccc(C[C@H](N)C(=O)O)cc1; X1 = O=C(Cc1ccc(CN[*:1])cc1)[*:2]; 3Pal = N[C@@H](Cc1cccnc1)C(=O)O; αMeL = CC(C)C[C@](C)(N)C(=O)O; CH2COCH2 = O=C(C[*:1])C[*:2]; NMeS = CN[C@@H](CO)C(=O)O; Pyrrolidide = C1CCN(*)C1; Dab = NCC[C@H](N)C(=O)O; βAla = NCCC(=O)O

Biological target: T1, human IL-23R (Homo sapiens, UniProt Q5VWK5)
T1 sequence (Q5VWK5 22-629): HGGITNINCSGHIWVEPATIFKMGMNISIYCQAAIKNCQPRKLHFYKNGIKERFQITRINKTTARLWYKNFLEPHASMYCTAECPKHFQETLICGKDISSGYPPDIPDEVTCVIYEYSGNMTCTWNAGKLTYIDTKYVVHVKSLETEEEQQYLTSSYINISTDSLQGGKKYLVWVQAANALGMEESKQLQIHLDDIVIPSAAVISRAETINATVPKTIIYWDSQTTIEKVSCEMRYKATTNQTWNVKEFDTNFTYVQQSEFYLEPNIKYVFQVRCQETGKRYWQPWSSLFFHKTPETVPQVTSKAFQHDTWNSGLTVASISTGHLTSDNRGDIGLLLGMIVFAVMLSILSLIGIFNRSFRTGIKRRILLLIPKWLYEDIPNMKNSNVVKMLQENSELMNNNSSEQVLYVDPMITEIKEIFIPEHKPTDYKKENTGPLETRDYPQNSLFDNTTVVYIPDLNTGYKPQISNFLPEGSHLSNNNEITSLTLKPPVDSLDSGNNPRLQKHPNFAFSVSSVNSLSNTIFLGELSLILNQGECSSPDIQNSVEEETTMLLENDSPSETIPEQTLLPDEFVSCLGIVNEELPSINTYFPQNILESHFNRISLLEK
Test: biochemical
Settings: for Emax: read-out: % displacement (hIL-23R binding)
Text: The compound binding affinity for IL-23R was estimated by the ability of compounds to displace a fluorophore-labelled reference compound from the human IL-23R. The assay principle relies on Bioluminescence Resonance Energy Transfer (BRET) between a fluorophore-labelled reference compound binding to the IL-23R part of a fusion protein consisting of the IL-23R fused to a Nanoluc luciferase enzyme (Nanoluc). The Nanoluc is placed in the N-terminus in close proximity to the binding domain of the ligand. Upon close proximity between the fluorophore of the fluorophore-labelled compound and the Nanoluc of the fusion protein, bioluminescence energy generated from conversion of a Nanoluc substrate, is transferred to the fluorophore resulting in an increase in BRET. In presence of an unlabelled compound, the unlabelled compound displaces the fluorophore-labelled peptide from its binding site resulting in a decrease in BRET. The concentration for which half of the fluorophore-labelled peptide is displaced by the unlabelled compound depends on the affinity of the compound for the IL-23R, and is termed the IC50 concentration.
The plasmid also contained a gene to confer resistance for the antibiotic hygromycin. A cell line stably expressing the Nluc-IL23R fusion protein was generated by transfection of HEK293 cells with the expression plasmid and selected with hygromycin for 3 weeks in Growth medium consisting of DMEM w/ Glutamax-I containing, 10% V/V FBS, 1% V/V P/S, 1 mM Sodium Pyruvate, and 1X NEAA, and 0.3 mg/mL hygromycin. The remaining cells were propagated and considered a stable expressing Nluc-IL23R fusion protein pool clone.
Cells expressing the Nluc-IL23R fusion protein were expanded in Growth medium and membranes prepared by homogenization of a cell pellet from 18 T175 flasks (4 °C in subsequent steps). The cell pellet was lysed Tris 10 mM, 7.5, 1 mM EDTA and protease inhibitors (Complete, Roche) and homogenized using a 15 mL glass-dounce by 50 strokes. The homogenate was spun at spin @1500 rpm for 10 min, the supernatant transferred to SV-34 tubes and spun at 40000g for 20 min at 4 °C to pellet the crude membranes. The supernatant was then removed, the pellet resuspended in 5 mL buffer containing 50 mM HEPES pH 7.4, 5 mM EGTA, and 5 mM MgCl2, and homogenized. Aliquots of the resuspended and homogenized membranes containing the Nluc-IL23R fusion protein were stored at -80 °C until use.
The plate was sealed with light impermeable plate seals, and incubated on an orbital shaker 400 rpm for 2 hours at room temperature. To determine the BRET ratio, the plate seal was removed and 25 µL of the Nanoluc substrate (Promega N1572) diluted 1:500 was added to each well and incubated for 1-2 minutes on an orbital shaker at 400 rpm. […] The BRET ratio was calculated as the fluorescence from the TAMRA/nanoluc bioluminescence.
Compound potency (IC50) and maximal displacement (% displacement) were estimated by computer-aided curve fitting using a 4-parameter logistic (4PL) non-linear model. […]
In this application, the inventors provide the data as IC50 values.

Row | Compound | % displacement (hIL-23R binding) | IC50 | Emax
1 | CNC(=O)[C@H](Cc1cncnc1)NC(=O)[C@H](CCN)NC(=O)[C@@H]1CCC(=O)NCc2ccc(cc2)CC(=O)N[C@@H](CO)C(=O)N[C@H]2CCC(=O)NCC[C@H](NC(=O)[C@H](CCC(N)=O)NC(=O)[C@H](Cc3c[nH]c4ccccc34)NC2=O)C(=O)N[C@@H](Cc2ccc(OCCN)cc2)C(=O)N[C@@H](Cc2ccc3ccccc3c2)C(=O)N[C@@](C)(CC(C)C)C(=O)N1 [Compound 19, [4-Aminomethyl-phenylacetyl](1c)*SE(2c)WQ[Dab](2c)[Y(2-aminoethoxy)][2-Nal][2-Me-Leu]E(1c)[Dab][3-(3,5-Pyrimidyl)-Ala]-[NHMe]] | 103% | 0.054 nM | 
2 | CNC(=O)[C@H](Cc1cccnc1)NC(=O)[C@H](CCN)NC(=O)[C@@H]1CCC(=O)NCc2ccc(cc2)CC(=O)N[C@@H](CO)C(=O)N[C@H]2CCC(=O)NCC[C@H](NC(=O)[C@H](CCCCNC(C)=O)NC(=O)[C@H](Cc3c[nH]c4ccccc34)NC2=O)C(=O)N[C@@H](Cc2ccc(OCCN)cc2)C(=O)N[C@@H](Cc2ccc3ccccc3c2)C(=O)N[C@@](C)(CC(C)C)C(=O)N1 [Compound 24, [4-Aminomethyl-phenylacetyl](1c)*SE(2c)W[K(Ac)][Dab](2c)[Y(2-aminoethoxy)][2-Nal][2-Me-Leu]E(1c)[Dab][3-(3-Pyridyl)-Ala]-[NHMe]] ([X1]SEWK(Ac)[Dab][AEF][2Nal][αMeL]E[Dab][3Pal]-NHMe; lactam 3-6, N-10) | 97% | 0.014 nM | 
3 | CNC(=O)[C@H](Cc1cccnc1)NC(=O)[C@H](CCN)NC(=O)[C@@H]1CCC(=O)NCc2ccc(cc2)CC(=O)N[C@@H](C)C(=O)N[C@H]2CCC(=O)NCC[C@H](NC(=O)[C@H](CCC(N)=O)NC(=O)[C@H](Cc3c[nH]c4ccccc34)NC2=O)C(=O)N[C@@H](Cc2ccc(OCCN)cc2)C(=O)N[C@@H](Cc2c[nH]c3ccccc23)CC(=O)NC(C)(C)C(=O)N1 [Compound 46, [4-Aminomethyl-phenylacetyl](1c)*AE(2c)WQ[Dab](2c)[Y(2-aminoethoxy)][beta-hTrp][Aib]E(1c)[Dab][3-(3-Pyridyl)-Ala]-[NHMe]] |  | 57 nM | 101%
4 | CNC(=O)[C@H](Cc1cccnc1)NC(=O)[C@H](CCN)NC(=O)[C@@H]1CCC(=O)NCc2ccc(cc2)CC(=O)N(C)[C@@H](CO)C(=O)N[C@H]2CCC(=O)NCC[C@H](NC(=O)[C@H](CCC(N)=O)NC(=O)[C@H](Cc3c[nH]c4ccccc34)NC2=O)C(=O)N[C@@H](Cc2ccc(OCCN)cc2)C(=O)N[C@@H](Cc2ccc3ccccc3c2)C(=O)N[C@@](C)(CC(C)C)C(=O)N1 [Compound 18, [4-Aminomethyl-phenylacetyl](1c)*[N-Me-Ser]E(2c)WQ[Dab](2c)[Y(2-aminoethoxy)][2-Nal][2-Me-Leu]E(1c)[Dab][3-(3-Pyridyl)-Ala]-[NHMe]] ([X1][NMeS]EWQ[Dab][AEF][2Nal][αMeL]E[Dab][3Pal]-NHMe; lactam 3-6, N-10) |  | 0.015 nM | 96%
5 | CNC(=O)[C@H](Cc1cccnc1)NC(=O)[C@H](CCN)NC(=O)[C@@H]1CCC(=O)NCc2ccc(cc2)CC(=O)N[C@@H](C)C(=O)N[C@H]2CCC(=O)NCC[C@H](NC(=O)[C@H](CCC(N)=O)NC(=O)[C@H](Cc3c[nH]c4ccccc34)NC2=O)C(=O)N[C@@H](Cc2ccc(OCCN)cc2)C(=O)N[C@@H](CC2CC2)C(=O)NC(C)(C)C(=O)N1 [Compound 42, [4-Aminomethyl-phenylacetyl](1c)*AE(2c)WQ[Dab](2c)[Y(2-aminoethoxy)][Cyclopropyl-Ala][Aib]E(1c)[Dab][3-(3-Pyridyl)-Ala]-[NHMe]] | 100% |  | 
6 | CNC(=O)[C@H](Cc1cccnc1)NC(=O)[C@H](CCN)NC(=O)[C@@H]1CCC(=O)NCc2ccc(cc2)CC(=O)N[C@@H](CO)C(=O)N[C@H]2CCC(=O)NCC[C@H](NC(=O)[C@H](CCC(=O)N3CCCC3)NC(=O)[C@H](Cc3c[nH]c4ccccc34)NC2=O)C(=O)N[C@@H](Cc2ccc(OCCN)cc2)C(=O)N[C@@H](Cc2ccc3ccccc3c2)C(=O)N[C@@](C)(CC(C)C)C(=O)N1 [Compound 27, [4-Aminomethyl-phenylacetyl](1c)*SE(2c)W[Q(pyrrolidin)][Dab](2c)[Y(2-aminoethoxy)][2-Nal][2-Me-Leu]E(1c)[Dab][3-(3-Pyridyl)-Ala]-[NHMe]] ([X1]SEWE(Pyrrolidide)[Dab][AEF][2Nal][αMeL]E[Dab][3Pal]-NHMe; lactam 3-6, N-10) | 97% |  | 
7 | CC(C)C[C@]1(C)NC(=O)[C@H](Cc2ccc3ccccc3c2)NC(=O)[C@H](Cc2ccc(OCCN)cc2)NC(=O)[C@@H]2CCNC(=O)CC[C@H](NC(=O)[C@H](CO)NC(=O)Cc3ccc(cc3)CNC(=O)CC[C@@H](C(=O)NC[C@H](N[C@@H](Cc3cccnc3)C(N)=O)C(F)(F)F)NC1=O)C(=O)N[C@@H](Cc1c[nH]c3ccccc13)C(=O)N[C@@H](CCC(N)=O)C(=O)N2 [Compound 17, [4-Aminomethyl-phenylacetyl](1c)*SE(2c)WQ[Dab](2c)[Y(2-aminoethoxy)][2-Nal][2-Me-Leu]E(1c)[Gly-CF3][3-(3-Pyridyl)-Ala]-[NH2]] | 98% |  | 
8 | CC(C)C[C@]1(C)NC(=O)[C@H](Cc2ccc3ccccc3c2)NC(=O)[C@H](Cc2ccc(OCCN)cc2)NC(=O)[C@@H]2CCNC(=O)CC[C@H](NC(=O)[C@H](CO)NC(=O)Cc3ccc(cc3)CNC(=O)CC[C@@H](C(=O)NC[C@@H](N[C@@H](Cc3cccnc3)C(N)=O)C(F)(F)F)NC1=O)C(=O)N[C@@H](Cc1c[nH]c3ccccc13)C(=O)N[C@@H](CCC(N)=O)C(=O)N2 [Compound 16, [4-Aminomethyl-phenylacetyl](1c)*SE(2c)WQ[Dab](2c)[Y(2-aminoethoxy)][2-Nal][2-Me-Leu]E(1c)[{d}Gly-CF3][3-(3-Pyridyl)-Ala]-[NH2]] |  | 0.13 nM | 101%
9 | CNC(=O)[C@H](Cc1cccnc1)NC(=O)[C@H](CCN)NC(=O)[C@@H]1CCC(=O)NCc2ccc(cc2)CC(=O)N[C@@H](C)C(=O)N[C@H]2CCC(=O)NCC[C@H](NC(=O)[C@H](CCC(N)=O)NC(=O)[C@H](Cc3c[nH]c4ccccc34)NC2=O)C(=O)N[C@@H](Cc2ccc(OCCN)cc2)C(=O)N[C@@H](Cc2c[nH]c3ncccc23)C(=O)NC(C)(C)C(=O)N1 [Compound 44, [4-Aminomethyl-phenylacetyl](1c)*AE(2c)WQ[Dab](2c)[Y(2-aminoethoxy)][7-AzaTrp][Aib]E(1c)[Dab][3-(3-Pyridyl)-Ala]-[NHMe]] |  | 0.27 nM | 100%
10 | CC(C)C[C@]1(C)NC(=O)[C@H](Cc2ccc3ccccc3c2)NC(=O)[C@H](Cc2ccc(OCCN)cc2)NC(=O)[C@@H]2CSCC(=O)CSC[C@H](NC(=O)[C@H](CO)NC(=O)CCNC(=O)[C@H](Cc3cccnc3)NC(=O)CC[C@@H](C(=O)N[C@H](CCCNC(=N)N)C(N)=O)NC1=O)C(=O)N[C@@H](Cc1c[nH]c3ccccc13)C(=O)N[C@@H](CCC(N)=O)C(=O)N2 [Compound 2, [3-(3-Pyridyl)-Ala](4c)*[3-Aminopropanoyl]SC(2a)WQC(2a)[Y(2-aminoethoxy)][2-Nal][2-Me-Leu]E(4c)[{d}R]-[NH2]] ([3Pal][βAla]SCWQC[AEF][2Nal][αMeL]E[dR]-NH2; linker 4-7 via CH2COCH2; lactam N-11) | 103% | 2.9 nM | 
